A short description of series [1]: oral bioavailability when administered to animals. The class given is in vivo. As for the experimental part:
(§1) Since the physiological pH typically lies within this range, the rate of the drug's dissolution in and absorption from the gastrointestinal tract can be low, particularly when the drug is administered in a solid dosage form. The same or similar formulation difficulties can be expected for other 8-hydroxy-1,6-naphthyridine-7-carboxamides of this class and their salts having low solubility at physiological pH's.
Particle size can affect the oral bioavailability of the active drug substances employed in the pharmaceutical compositions of the invention. […] Accordingly, embodiments of the present invention include each of the pharmaceutical compositions defined and described above, wherein the active drug substance (i.e., Compound I or II or A or B or a pharmaceutically acceptable salt thereof) employed therein has a mean particle size of from about 1 to about 20 μm, or from about 1 to about 10 μm (e.g., from about 3 to about 6 μm wherein 90% of the particles are less than 10 μm).

A short description of series [2]: in vitro dispersion of Compound A in aqueous surfactant solutions. It is filed as physicochemical. The conditions noted are these: aqueous media at physiological pHs, in the absence of a nonionic surfactant or in the presence of SLS; Na salt milled to 3 μm. The source says:
This PK data is consistent with the results of in vitro experiments characterizing the ability of these surfactants to disperse Compound A. In these experiments, Compound A Na salt (milled to a 3 μm mean particle size) was suspended in acidified aqueous solutions of the surfactant, and the surfactants were ranked for effectiveness in dispersing Compound A based on a visual evaluation of the suspension for turbidity and particle size. The visual evaluations were confirmed by measuring the particle size distributions in the suspensions using a laser scattering particle size distribution analyzer. The results of these tests have shown that Compound A drug particles flocculate in aqueous media at physiological pHs in the absence of a nonionic surfactant or in the presence of SLS.

Series [3] in a line: wettability and water solubility. The class given is physicochemical. As for the experimental part: as §1
A further series relates to HIV replication. The series is described as follows: inhibition of acute HIV infection of T-lymphoid cells. The class given is cell-based. The source says: The active drug substances employed in the pharmaceutical compositions of the present invention (e.g., the 8-hydroxy-1,6-naphthyridine-7-carboxamide compounds of Formula (I) and (II) and Compounds A and B) are inhibitors of HIV integrase. […] Integrase inhibition activity can be determined, for example, using the assay described in Hazuda et al., J. Virol. 1997, 71: 7005-7011. […] Further description of representative compound embraced by Formula I, assays for measuring their integrase inhibition activity and HIV replication activity can be found in WO 02/30930.

Another series deals with T1, HIV integrase (Human immunodeficiency virus type 1 group M subtype B, UniProt P04585).
T1 construct: strand transfer is catalyzed by recombinant integrase
The series is described as follows: integrase inhibition assay, strand transfer catalyzed by recombinant integrase. It is filed as biochemical. The source says:
Integrase inhibition activity can be determined, for example, using the assay described in Hazuda et al., J. Virol. 1997, 71: 7005-7011.

[4] abbreviates: animals, aqueous suspensions containing 0.5 wt. % methocel and 0.02 wt. % sodium lauryl sulfate.

Turning to `O=C(NCc1ccc(F)cc1)c1nc(N2CCCCS2(=O)=O)c2cccnc2c1[O-].[Na+]` [Compound A sodium salt, 5-(N-1,4-butanesultam)-N-(4-fluorobenzyl)-8-hydroxy-1,6-naphthyridine-7-carboxamide sodium salt], the oral bioavailability entry is recorded as “satisfactory oral bioavailability” in series [1] (setting [4]); “poor oral bioavailability” in series [1] (animals, wet granulated compressed tablets with lactose, hydroxypropylcellulose, Na croscarmellose, microcrystalline cellulose, Mg stearate (no surfactant)); “substantially lower oral bioavailability” in series [1] (capsules containing bulk Compound A sodium salt, versus the suspension).

Regarding `O=C(NCc1ccc(F)cc1)c1nc(N2CCCCS2(=O)=O)c2cccnc2c1O` [Compound A, 5-(1,1-dioxido-1,2-thiazinan-2-yl)-N-(4-fluorobenzyl)-8-hydroxy-1,6-naphthyridine-7-carboxamide], the “dispersion of drug particles (turbidity, particle size)” value in series [2] is listed as “flocculate”. The wettability entry in series [3] is “poor wettability”. Also, the water solubility entry in series [3] (pH's between about 2 and about 8) is “low water solubility”. For the same molecule, the “inhibition of HIV replication” value in the series with HIV replication is reported as “very effective”. In addition, at HIV integrase, the “HIV integrase inhibition in the strand transfer assay” value was “potent HIV integrase inhibitors”. For the same molecule, in series [1] (setting [4]), the oral bioavailability result is on record as “satisfactory oral bioavailability”.

With `CNC(=O)c1cc(F)ccc1CNC(=O)c1nc(N2CCCCS2(=O)=O)c2cccnc2c1O` [Compound B, N-{4-fluoro-2-[(methylamino)carbonyl]benzyl}-5-(1,1-dioxido-1,2-thiazinan-2-yl)-8-hydroxy-1,6-naphthyridine-7-carboxamide], in the series with HIV replication, the “inhibition of HIV replication” value was “very effective”. For the same molecule, the “HIV integrase inhibition in the strand transfer assay” value at HIV integrase is on record as “potent HIV integrase inhibitors”.
